Assays:
PLCPRF5 = assay: CellTiter-Blue cell-based survival/proliferation assay, PLCPRF5; conditions: Homo sapiens, PLC-PRF-5; PLC_PRF5 liver tumor cell line, 48 h
Procedure, shortened: (§1)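 Tenfold compound dilutions (0–10 μM) were added to 1·10^4 cells/well. Plates incubated 48 h at 37 °C. CellTiter-Blue reduction (4 h, 37 °C) was read as fluorescence at 590 nm, background-corrected with a cell-free blank.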

MESSA = assay: CellTiter-Blue cell-based survival/proliferation assay, MESSA; conditions: Homo sapiens, MES-SA; MESSA ovary tumor cell line, 48 h
Procedure, shortened: as §1

BXPC3 = assay: CellTiter-Blue cell-based survival/proliferation assay, BXPC3; conditions: Homo sapiens, BXPC-3; BXPC3 pancreas tumor cell line, 48 h
Procedure, shortened: as §1

OPM2 = assay: CellTiter-Blue cell-based survival/proliferation assay, OPM2; conditions: Homo sapiens, OPM-2, Myeloma cell line OPM2, 48 h, read-out: Anti-tumoral activity (measured IC50) OPM2
Procedure, shortened: as §1

ACHN = assay: CellTiter-Blue cell-based survival/proliferation assay, ACHN; conditions: Homo sapiens; ACHN kidney tumor cell line, 48 h
Procedure, shortened: as §1

HCT116 = assay: CellTiter-Blue cell-based survival/proliferation assay, HCT116; conditions: Homo sapiens, HCT-116; HCT116 colorectal tumor cell line, 48 h
Procedure, shortened: as §1

MDAMB231 = assay: CellTiter-Blue cell-based survival/proliferation assay, MDAMB231; conditions: Homo sapiens, MDA-MB-231; MDAMB231 breast tumor cell line, 48 h
Procedure, shortened: as §1

HEPG2 = assay: CellTiter-Blue cell-based survival/proliferation assay, HEPG2; conditions: Homo sapiens; HEPG2 liver tumor cell line, 48 h
Procedure, shortened: as §1

A4513 = assay: CellTiter-Blue cell-based survival/proliferation assay, A4513; conditions: Homo sapiens; A4513 Ewing cell line, 48 h
Procedure, shortened: as §1

H1299 = assay: CellTiter-Blue cell-based survival/proliferation assay, H1299; conditions: Homo sapiens, NCI-H1299; H1299 lung tumor cell line, 48 h
Procedure, shortened: as §1

DLD1 = assay: CellTiter-Blue cell-based survival/proliferation assay, DLD1; conditions: Homo sapiens, DLD-1; DLD_1 colorectal tumor cell line, 48 h
Procedure, shortened: as §1

MELWO = assay: CellTiter-Blue cell-based survival/proliferation assay, MELWO; conditions: Homo sapiens; MEL_WO melanoma cell line, 48 h
Procedure, shortened: as §1

HL60 = assay: CellTiter-Blue cell-based survival/proliferation assay, HL60; conditions: Homo sapiens, HL-60, Leukemia cell line HL60, 48 h, read-out: Anti-tumoral activity (measured IC50) HL60
Procedure, shortened: as §1

CLS354 = assay: CellTiter-Blue cell-based survival/proliferation assay, CLS354; conditions: Homo sapiens, CLS-354; CLS354_4 head & neck tumor cell line, 48 h
Procedure, shortened: as §1

A498 = assay: CellTiter-Blue cell-based survival/proliferation assay, A498; conditions: Homo sapiens; A498 kidney tumor cell line, 48 h
Procedure, shortened: as §1

REC1 = assay: CellTiter-Blue cell-based survival/proliferation assay, REC1; conditions: Homo sapiens, Lymphoma cell line REC1, 48 h, read-out: Anti-tumoral activity (measured IC50) REC1
Procedure, shortened: as §1

A549 = assay: CellTiter-Blue cell-based survival/proliferation assay, A549; conditions: Homo sapiens; A549 lung tumor cell line, 48 h
Procedure, shortened: as §1

TOV112D = assay: CellTiter-Blue cell-based survival/proliferation assay, TOV112D; conditions: Homo sapiens; TOV112D ovary tumor cell line, 48 h
Procedure, shortened: as §1

HGC27 = assay: CellTiter-Blue cell-based survival/proliferation assay, HGC27; conditions: Homo sapiens, HGC-27; HGC27 stomach tumor cell line, 48 h
Procedure, shortened: as §1

HEP2 = assay: CellTiter-Blue cell-based survival/proliferation assay, HEP2; conditions: Homo sapiens, HEp-2; HEP2 head & neck tumor cell line, 48 h
Procedure, shortened: as §1

SW579 = assay: CellTiter-Blue cell-based survival/proliferation assay, SW579; conditions: Homo sapiens; SW579 head & neck tumor cell line, 48 h
Procedure, shortened: as §1

KARPAS299 = assay: CellTiter-Blue cell-based survival/proliferation assay, KARPAS299; conditions: Homo sapiens, KARPAS-299, Lymphoma cell line KARPAS299, 48 h, read-out: Anti-tumoral activity (measured IC50) KARPAS299
Procedure, shortened: as §1

HUT78 = assay: CellTiter-Blue cell-based survival/proliferation assay, HUT78; conditions: Homo sapiens, Lymphoma cell line HUT78, 48 h, read-out: Anti-tumoral activity (measured IC50) HUT78
Procedure, shortened: as §1

U118 = assay: CellTiter-Blue cell-based survival/proliferation assay, U118; conditions: Homo sapiens; U118 glioblastoma cell line, 48 h
Procedure, shortened: as §1

DU145 = assay: CellTiter-Blue cell-based survival/proliferation assay, DU145; conditions: Homo sapiens, DU-145; DU145 prostate tumor cell line, 48 h
Procedure, shortened: as §1

CALU6 = assay: CellTiter-Blue cell-based survival/proliferation assay, CALU6; conditions: Homo sapiens, Calu-6; CALU6 lung tumor cell line, 48 h
Procedure, shortened: as §1

AGS = assay: CellTiter-Blue cell-based survival/proliferation assay, AGS; conditions: Homo sapiens; AGS stomach tumor cell line, 48 h
Procedure, shortened: as §1

U2OS = assay: CellTiter-Blue cell-based survival/proliferation assay, U2OS; conditions: Homo sapiens; U2OS osteosarcoma cell line, 48 h
Procedure, shortened: as §1

BT20 = assay: CellTiter-Blue cell-based survival/proliferation assay, BT20; conditions: Homo sapiens, BT-20; BT20 breast tumor cell line, 48 h
Procedure, shortened: as §1

A375 = assay: CellTiter-Blue cell-based survival/proliferation assay, A375; conditions: Homo sapiens, A-375; A375 melanoma cell line, 48 h
Procedure, shortened: as §1

PANC1 = assay: CellTiter-Blue cell-based survival/proliferation assay, PANC1; conditions: Homo sapiens, PANC-1; PANC_1 pancreas tumor cell line, 48 h
Procedure, shortened: as §1

PC3 = assay: CellTiter-Blue cell-based survival/proliferation assay, PC3; conditions: Homo sapiens, PC-3; PC3 prostate tumor cell line, 48 h
Procedure, shortened: as §1

U87MG = assay: CellTiter-Blue cell-based survival/proliferation assay, U87MG; conditions: Homo sapiens, U-87 MG; U87_MG glioblastoma cell line, 48 h
Procedure, shortened: as §1

| Compound | IC50 (PLCPRF5) [nM] | IC50 (MESSA) [nM] | IC50 (BXPC3) [nM] | IC50 (OPM2) [nM] | IC50 (ACHN) [nM] | IC50 (HCT116) [nM] | IC50 (MDAMB231) [nM] | IC50 (HEPG2) [nM] | IC50 (A4513) [nM] | IC50 (H1299) [nM] | IC50 (DLD1) [nM] | IC50 (MELWO) [nM] | IC50 (HL60) [nM] | IC50 (CLS354) [nM] | IC50 (A498) [nM] | IC50 (REC1) [nM] | IC50 (A549) [nM] | IC50 (TOV112D) [nM] | IC50 (HGC27) [nM] | IC50 (HEP2) [nM] | further results |
| --- | --- | --- | --- | --- | --- | --- | --- | --- | --- | --- | --- | --- | --- | --- | --- | --- | --- | --- | --- | --- | --- |
| CCOCc1ccc(C)c(Nc2ncc(-c3ccc(N4CCNC4=O)cc3)s2)c1 [Example 014, 1-{4-[2-(5-Ethoxymethyl-(2-methyl-phenylamino))-thiazol-5-yl]-phenyl}-imidazolidin-2-one] | > 1000 | > 1000 | > 1000 | > 1000 | > 1000 | > 1000 | > 1000 | > 1000 | 500 to 1000 | > 1000 | > 1000 | > 1000 | > 1000 | > 1000 | > 1000 | > 1000 | > 1000 | > 1000 | > 1000 | > 1000 | IC50 (SW579): > 1000 nM; IC50 (KARPAS299): 100 to 500 nM; IC50 (HUT78): > 1000 nM; IC50 (U118): > 1000 nM; IC50 (DU145): > 1000 nM; IC50 (CALU6): > 1000 nM; IC50 (AGS): > 1000 nM; IC50 (U2OS): > 1000 nM; IC50 (BT20): > 1000 nM; IC50 (A375): > 1000 nM; IC50 (PANC1): > 1000 nM; IC50 (PC3): > 1000 nM; IC50 (U87MG): > 1000 nM |
| CCOCc1ccc(C)c(Nc2nc(-c3ccc(-n4cccn4)cc3)cs2)c1 [Example 015, (5-Ethoxymethyl-2-methyl-phenyl)-[4-(4-pyrazol-1-yl-phenyl)-thiazol-2-yl]-amine] | > 1000 | > 1000 | > 1000 | 100 to 500 | > 1000 | > 1000 | > 1000 | > 1000 | 100 to 500 | > 1000 | > 1000 | > 1000 | ≤ 100 | ≤ 100 | 500 to 1000 | ≤ 100 | > 1000 | 500 to 1000 | > 1000 | > 1000 | IC50 (SW579): > 1000 nM; IC50 (KARPAS299): ≤ 100 nM; IC50 (HUT78): ≤ 100 nM; IC50 (U118): > 1000 nM; IC50 (DU145): > 1000 nM; IC50 (CALU6): > 1000 nM; IC50 (AGS): > 1000 nM; IC50 (U2OS): > 1000 nM; IC50 (BT20): > 1000 nM; IC50 (A375): > 1000 nM; IC50 (PANC1): > 1000 nM; IC50 (PC3): ≤ 100 nM; IC50 (U87MG): > 1000 nM |
| Cc1ccc(CO)cc1Nc1nc(-c2ccc(-n3cccn3)cc2)cs1 [Example 016, {4-Methyl-3-[4-(4-pyrazol-1-yl-phenyl)-thiazol-2-ylamino]-phenyl}-methanol] | > 1000 | > 1000 | > 1000 | > 1000 | > 1000 | > 1000 | > 1000 | > 1000 | > 1000 | > 1000 | > 1000 | > 1000 | > 1000 | > 1000 | > 1000 | > 1000 | > 1000 | > 1000 | > 1000 | > 1000 | IC50 (SW579): > 1000 nM; IC50 (KARPAS299): > 1000 nM; IC50 (HUT78): > 1000 nM; IC50 (U118): > 1000 nM; IC50 (DU145): > 1000 nM; IC50 (CALU6): > 1000 nM; IC50 (AGS): > 1000 nM; IC50 (U2OS): > 1000 nM; IC50 (BT20): > 1000 nM; IC50 (A375): > 1000 nM; IC50 (PANC1): > 1000 nM; IC50 (PC3): > 1000 nM; IC50 (U87MG): > 1000 nM |
| CCOCc1ccc(C)c(Nc2nc(-c3ccc(-n4ccnc4)cc3)cs2)c1 [Example 017, (5-Ethoxymethyl-2-methyl-phenyl)-[4-(4-imidazol-1-yl-phenyl)-thiazol-2-yl]-amine] | > 1000 | > 1000 | > 1000 | > 1000 | > 1000 | > 1000 | > 1000 | > 1000 | > 1000 | > 1000 | > 1000 | > 1000 | > 1000 | > 1000 | > 1000 | > 1000 | > 1000 | > 1000 | > 1000 | > 1000 | IC50 (SW579): > 1000 nM; IC50 (KARPAS299): > 1000 nM; IC50 (HUT78): > 1000 nM; IC50 (U118): > 1000 nM; IC50 (DU145): > 1000 nM; IC50 (CALU6): > 1000 nM; IC50 (AGS): > 1000 nM; IC50 (U2OS): > 1000 nM; IC50 (BT20): > 1000 nM; IC50 (A375): > 1000 nM; IC50 (PANC1): > 1000 nM; IC50 (PC3): > 1000 nM; IC50 (U87MG): > 1000 nM |

From patent US10570122B2, “Compounds with anti-tumoral activity” (AB Science, priority 2015, dated 2020)
